Entries after “also recorded” stand apart in the source; their conditions may differ. Read-outs that look alike come from different tables or passages of the source.
What was measured:
R2R3 (WT) tau peptide = biological target: T1, R2R3 (WT) tau peptide (Homo sapiens, UniProt P10636); assay: Atomic force microscopy of R2R3 (WT) aggregates; assay type: biochemical; details: compound 10 μM, 48 h
T1 construct: Peptides spanning R2R3—including PHF6 and PHF6*; purchased ProteoGenix (Schiltigheim, France); host or cells: chemical synthesis (custom peptide)
T1 sequence (P10636 592-653 limits assumed): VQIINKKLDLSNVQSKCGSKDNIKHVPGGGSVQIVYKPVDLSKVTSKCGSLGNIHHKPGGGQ
Experimental: Aggregates collected after 48 h of aggregation were processed for AFM analysis as described previously (Annadurai, Malina, Malohlava, et al., [2022]).

[1] = tested on: Tau RD P301S FRET Biosensor cells; assay: Biosensor cells treated with compound alone, no exogenous seeds; assay type: cell-based; details: 48 h
Experimental: Figure S17. […] Tau RD P301S FRET Biosensor cells were treated with PUR or OLC at the indicated concentrations for 48 h in the absence of any exogenous tau seeds or aggregation mixtures. Cells were then imaged under the same conditions described in Figure 5 to assess spontaneous FRET signal (CFP/YFP inclusions) as a readout of intracellular tau aggregation. […] Scale bar: 100 µm.

R2R3 (P301L) tau peptide = R2R3 (P301L) tau peptide (Homo sapiens, UniProt P10636, P618L); assay: SPR titration cycle kinetics, immobilized R2R3 (P301L) peptide; assay type: binding
Chain of R2R3 (P301L) tau peptide (P10636 592-653 P618L): as the sequence (P10636 592-653 limits assumed) above, with P27L counted along it
Experimental: SPR experiments were conducted using the Sierra® SPR‐24 Pro system (Bruker Daltonics, Bremen, Germany), featuring a gold‐coated microfluidic array (24 detection spots, 3 × 8 format). Data acquisition and kinetic analysis were performed using SPR Analyzer 4 software.
All experiments were conducted at 25°C using PBS (pH 7.4) supplemented with 0.05% Tween‐20 and 5% DMSO as the running buffer to ensure assay reproducibility. Assay components, including 96‐well microtiter plates (Part # 1862984; Burker) and Microplate and Reservoir Sealer (Part #1862985; Burker), were used for sample handling and were compatible with the Sierra SPR®‐24 Pro system (Bruker Daltonics, Billerica, MA, USA).
WT and mutant (P301L, V287I, and N279K) tau peptides were dissolved in 10 mM sodium acetate buffer (pH 5.0; Burker) and immobilized onto High‐Capacity Amine Sensor Surfaces (Part #1862614; Bruker) using the Amine Coupling Kit (Part #1862634; Bruker). The sensor surface was preconditioned with a Surface Elution Buffer (Part #1862656; Bruker Daltonics) and 0.1M HCl to remove contaminants and improve binding specificity.
The surface was activated using 400 mM 1‐ethyl‐3‐(3‐dimethylaminopropyl) carbodiimide (Burker) and 50 mM N‐hydroxysuccinimide (Burker), enabling covalent attachment of tau peptides. Unreacted binding sites were blocked with 1M ethanolamine‐HCl (pH 8.5; Burker) to minimize nonspecific interactions. For each experiment, specific sensor spots (A/B/C) on channels 1–8 were designated for tau‐analyte interactions, with corresponding reference spots on the same channel for baseline correction. DMSO calibration solutions (4.6%, 4.8%, 5%, 5.2%, and 5.4%) were prepared for double referencing to compensate for DMSO solvent effects.
PUR and OLC were prepared in PBS (pH 7.4) supplemented with 0.05% Tween‐20 and 5% DMSO. Compound interactions with tau peptides were pre‐screened using a concentration range of 1–100 μM, and subsequent binding kinetics were evaluated at optimized concentrations. For kinetic studies, PUR was tested at […], while OLC was tested at 25–100 μM using two‐fold serial dilutions. Each analyte was sequentially injected, and association and dissociation phases were monitored to determine kinetic parameters.
SPR binding kinetics were assessed using the titration cycle kinetics (TCK) assay, which included consecutive association phases followed by a single dissociation phase. Pre‐assay simulations using the Kinetic Simulator feature of SPR Analyzer 4 software were used to optimize analyte concentration ranges and association/dissociation times. A reference blank injection was included for double referencing, and a single dissociation curve was recorded for the highest analyte concentration.
Sensorgrams were analyzed using the Kinetic Titration model, which was integrated into the global kinetic fitting model of the SPR Analyzer 4 software. This approach allowed for baseline correction and improved the reliability of kinetic parameters, including the Kon, Koff, and KD.
TCK‐derived kinetic parameters were compared across multiple runs and confirmed using Multi Injection Cycle Kinetics to validate reproducibility and accuracy.

## O=C1c2ccccc2C(=O)c2c(O)c(O)cc(O)c21 [PUR, purpurin]
R2R3 (WT) tau peptide
  AFM morphology of aggregates: shorter, fragmented fibrils
[1]
  induction of endogenous tau aggregation (FRET-positive inclusions) by compound alone: No FRET-positive aggregates were detected; also recorded: no FRET‐positive inclusions were detected
R2R3 (P301L) tau peptide
  Kd: 14.8 µM
R2R3 (P301L) tau peptide; SPR, R2R3 P301L
  kon: 26.4 M⁻¹ s⁻¹
R2R3 (P301L) tau peptide; SPR, R2R3 P301L, read-out: Koff
  koff: 0.00039 s⁻¹

## C/C=C(/C=O)[C@@H](CC=O)CC(=O)OCCc1ccc(O)cc1 [OLC, oleocanthal]
R2R3 (WT) tau peptide
  AFM morphology of aggregates: shorter, fragmented fibrils
[1]
  induction of endogenous tau aggregation (FRET-positive inclusions) by compound alone: No FRET-positive aggregates were detected; also recorded: no FRET‐positive inclusions were detected
R2R3 (P301L) tau peptide; SPR, R2R3 P301L
  Kon: 52.36 M⁻¹ s⁻¹
  koff: 8.26e-05 s⁻¹
R2R3 (P301L) tau peptide; SPR, R2R3 P301L peptide immobilized, 25°C, PBS pH 7.4, read-out: KD
  Kd: 1.58 µM

— article PMC12381781, “Structural and functional insights into the selective inhibition of mutant tau aggregation by purpurin and oleocanthal in frontotemporal dementia” (Protein Science : A Publication of the Protein Society, 2025)
